Reference: patent US12509460B2 (Skyhawk Therapeutics, Inc., priority 2019, dated 2025)
Where two headings read alike, the source gives them in different places.

Tests used:
[1] = test system: SMN protein in spinal muscular atrophy (SMA) patient fibroblasts (GM03813, Coriell); assay: SMN protein assay, Mesoscale Discovery (MSD); type: cell-based, human; details: for EC50: read-out: SMN2 protein EC50
Procedure, shortened: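 Absolute SMN levels were quantified by MSD against an SMN protein standard curve (1 μg/ml to 19.5 pg/ml) run on each plate. Samples were lysates of GM03813 patient fibroblasts (7000 cells/well) treated 48 hours with compound doses from 2.5 μM down to 0.6 nM.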

[2] = test system: MDR1 (P-gp); assay: in vitro; details: dog, MDCK-MDR1, pH 7.4
[3] = test system: MDR1; assay: in vitro; details: dog, MDCK-MDR1, pH 7.4
[4] = test system: mHTT protein in GM04724 (CAG 70/20) Huntington's disease patient lymphoblast cells; assay: mHTT protein assay, 2B7-MW1 assay via Mesoscale Discovery (MSD); type: cell-based, human
Procedure, shortened: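 Signal from the 2B7-MW1 antibody pair on MSD, rising with polyQ length and smaller HTT fragments, measured mHTT after 48 h compound exposure (0.6 nM–10 μM) in GM04724 cells. A parallel replicate plate gave CellTiter Glo viability.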

[5] = test system: MDR1-MDCK cell monolayers; details: dog, MDCK-MDR1, 120 min, 5 μM, pH 7.4
[6] = SMA patient fibroblasts GM03813, 48 hours, MSD
[7] = GM04724 Huntington's disease patient lymphoblasts
[8] = SMA patient fibroblasts (GM03813), 48 hours
[9] = GM04724 (CAG 70/20) Huntington's disease patient lymphoblasts

SMILES | SMN2 protein EC50 [1, 6] | Papp A→B at 120 min, 5 μM [2] | Papp B→A at 120 min, 5 μM [2] | efflux ratio at 120 min, 5 μM [3] | mHTT protein EC50 [4, 7] | MDCK-MDR1: % Recov A-B [5] | MDCK-MDR1: % Recov B-A [5] | EC50 [1, 6] | SMN2 protein EC50 [1, 8] | mHTT protein EC50 [4, 9] | EC50 [1, 8]
CNC(=O)c1cc(O)c(-c2ccc(N(C)[C@H]3C[C@@H]4CC[C@H]([C@H]3F)N4C)nn2)cc1F (single isomer, unassigned) [Compound 96B] | E (501 ≤ E ≤ 10.000) | 2.72 ×10⁻⁶ cm/s | 55.2 ×10⁻⁶ cm/s | 20 | E (501 ≤ E ≤ 10.000) | 92% | 98% |  |  |  | 
CN(c1ccc(-c2cc3ccn(C)c(=O)c3cc2O)nn1)[C@@H]1C[C@H]2CC[C@@H]([C@@H]1F)N2C (single isomer, unassigned) [Compound 97A] |  | 1.96 ×10⁻⁶ cm/s | 40.3 ×10⁻⁶ cm/s | 20 | E (501 ≤ E ≤ 10.000) | 73% | 74% | 101 to 500 nM |  |  | 
CN(C)C(=O)c1cc(O)c(-c2ccc(N(C)[C@@H]3C[C@H]4CC[C@@H]([C@@H]3F)N4C)nn2)cc1F (single isomer, unassigned) [Compound 104A] |  | 1.23 ×10⁻⁶ cm/s | 43.1 ×10⁻⁶ cm/s | 35 |  | 106% | 105% |  | E (501 ≤ E ≤ 10.000) | E (501 ≤ E ≤ 10.000) | 
CN(C)C(=O)c1cc(O)c(-c2ccc(N(C)[C@H]3C[C@@H]4CC[C@H]([C@H]3F)N4C)nn2)cc1F (single isomer, unassigned) [Compound 104B] |  | 0.89 ×10⁻⁶ cm/s | 50.2 ×10⁻⁶ cm/s | 56 |  | 99% | 105% |  | E (501 ≤ E ≤ 10.000) | E (501 ≤ E ≤ 10.000) | 
CN(C)C(=O)c1cc2cc(O)c(-c3ccc(N(C)[C@@H]4C[C@H]5CC[C@@H]([C@@H]4F)N5C)nn3)cc2o1 (single isomer, unassigned) [Compound 106A] |  | 1.87 ×10⁻⁶ cm/s | 63.1 ×10⁻⁶ cm/s | 34 |  | 95% | 92% |  | E (501 ≤ E ≤ 10.000) | E (501 ≤ E ≤ 10.000) | 
CN(C)C(=O)c1cc2cc(O)c(-c3ccc(N(C)[C@H]4C[C@@H]5CC[C@H]([C@H]4F)N5C)nn3)cc2o1 (single isomer, unassigned) [Compound 106B] |  | 1.61 ×10⁻⁶ cm/s | 55.7 ×10⁻⁶ cm/s | 35 |  | 92% | 99% |  |  | E (501 ≤ E ≤ 10.000) | 101 to 500 nM
CN(c1ccc(-c2cc3ncn(CC(F)(F)F)c(=O)c3cc2O)nn1)[C@@H]1C[C@H]2CC[C@@H]([C@@H]1F)N2C (single isomer, unassigned) [Compound 108A] |  | 1.51 ×10⁻⁶ cm/s | 73.7 ×10⁻⁶ cm/s | 49 |  | 82% | 91% |  | E (501 ≤ E ≤ 10.000) | E (501 ≤ E ≤ 10.000) | 
CN(c1ccc(-c2cc3ncn(CC(F)(F)F)c(=O)c3cc2O)nn1)[C@H]1C[C@@H]2CC[C@H]([C@H]1F)N2C (single isomer, unassigned) [Compound 108B] |  | 0.98 ×10⁻⁶ cm/s | 59.5 ×10⁻⁶ cm/s | 61 |  | 102% | 101% |  | E (501 ≤ E ≤ 10.000) | E (501 ≤ E ≤ 10.000) | 
CN(c1ccc(-c2cc3ncn(CC(F)(F)F)c(=O)c3cc2O)nn1)[C@@H]1C[C@H]2CCC[C@@H]([C@@H]1F)N2C (single isomer, unassigned) [Compound 109A] |  | 2.72 ×10⁻⁶ cm/s | 63.3 ×10⁻⁶ cm/s | 23 |  | 76% | 81% |  | E (501 ≤ E ≤ 10.000) | E (501 ≤ E ≤ 10.000) | 
CN(c1ccc(-c2cc3ncn(CC(F)(F)F)c(=O)c3cc2O)nn1)[C@H]1C[C@@H]2CCC[C@H]([C@H]1F)N2C (single isomer, unassigned) [Compound 109B] |  | 2.39 ×10⁻⁶ cm/s | 63.3 ×10⁻⁶ cm/s | 26 |  | 74% | 87% |  | E (501 ≤ E ≤ 10.000) | E (501 ≤ E ≤ 10.000) | 
